Key:
[1] = test system: Rhipicephalus sanguineus Nymphs; assay: Activity in vivo against Rhipicephalus sanguineus nymphs on Mongolian gerbils; conditions: topical, 0 h, pour on application day 0, tick number reduction vs placebo, Abbott's formula, read-out: efficacy (EC90)
Method: On day 0, gerbils are treated with the test compound at a given dose by pour on application. On day +1 (+2), the animals are infested with nymphs of R. sanguineus. Ticks are left on the animals until full repletion. Seven days after infestation nymphs dropped off fully engorged are collected and counted. They are kept until molting to also evaluate growth regulating activity of the test compound. Efficacy in killing (and growth regulating) is expressed as a tick number (and molted tick number) reduction in comparison with a placebo treated group, using the Abbott's formula:
n=number of live ticks. T=treated group. Co=control/placebo group.

[2] = test system: Lucilla Cuprina (Australian sheep blowfly); assay: Activity in vitro against Lucilla cuprina (Australian sheep blowfly), Assay A; conditions: eggs on agar-based medium; for pest or weed control at 32 ppm: Lucilia cuprina, 96 h, 4 days at 28° C. and 60% relative humidity, read-out: efficacy (EC80)
Method: Activity in vitro against Lucilla Cuprina (Australian sheep blowfly)—Assay A
Freshly laid blowfly eggs are used to seed a suitably formatted microplate containing the test substances to be evaluated for antiparasitic activity. Each compound is tested by serial dilution in order to determine its minimum efficacy dose. The test compounds are embedded in an agar-based nutritive medium allowing the full development of the eggs into 3rd instar larvae. The incubation lasts for 4 days at 28° C. and 60% relative humidity. Egg-hatching and ensuing larval development are also recorded to identify a possible growth-regulating activity.

[3] = test system: Rhipicephalus sanguineus (Dog Tick); assay: Activity in vitro against Rhipicephalus sanguineus (dog tick), Assay A, contact test; conditions: adult ticks; for pest or weed control at 100 ppm: Rhipicephalus sanguineus, 168 h, 28° C. and 80% relative humidity for 7 days, read-out: efficacy (EC80)
Method: Activity In Vitro Against Rhipicephalus sanguineus (Dog Tick)—Assay A
A contact test is performed by pre-coating microplate with serial dilution of compound allowing evaluating anti-parasitic activity by contact against ticks. A mixed adult tick population is then distributed to each well of the plate and incubated at 28° C. and 80% relative humidity for 7 days, during which the effect of the test compound is monitored. Acaricidal activity is confirmed if and when adult ticks are dead.

[4] = test system: Lice (Polyplax serrata); assay: Activity in vivo against lice (Polyplax serrata) in mice (topical); conditions: pour-on application, live lice on day +4 and +14, Henderson & Tilton formula, read-out: efficacy (EC90)
Method: Activity In Vivo Against Lice (Polyplax serrata) in Mice (Topical) Mice naturally infected with P. serrata are treated with the formulated test compound on day 0 by pour-on application. On day +4 and +14, efficacy is evaluated by counting the number of live lice under a binocular. Efficacy at the two time points is expressed as a comparison of lice numbers counted on the same mouse before treatment, using the Henderson & Tilton formula, taking also into account lice numbers found on mice treated with the empty formulation (placebo group): [formula] n=number of lice, T=treated group, Co=control/placebo group.

[5] = test system: Engorged Female Rhipicephalus microplus (Cattle Tick); assay: Activity in vitro against engorged female Rhipicephalus microplus (cattle tick), contact test; conditions: 672 h, organophosphorous-resistant Ultimo strain, evaluation 28 days later on mortality, oviposition and hatched larvae, read-out: efficacy (EC80)
Method: Activity In Vitro Against Engorged Female Rhipicephalus microplus (Cattle Tick)
A contact test is performed by pre-coating 6-well microplates with serial dilution of the compound to be evaluated for anti-parasitic activity. 10 engorged female ticks of the organophosphorous-resistant Ultimo strain are distributed to each well in triplicates. Plates are then incubated at 28° C. and 80% relative humidity. Evaluation takes place 28 days later based on mortality, oviposition and hatched larvae. […] Activity In Vivo Against Rhipicephalus sanguineus Nymphs on Mongolian Gerbils (Meriones unguiculatus) (Spray Application)

[6] = test system: Ctenocephalides Felis (Cat Flea); assay: Activity in vitro against Ctenocephalides felis (cat flea), Assay A; conditions: Ctenocephalides felis; at 100 ppm; adult fleas fed on treated blood for 24 h; dead fleas counted; read-out: efficacy (EC80)
Method: Activity In Vitro Against Ctenocephalides Felis (Cat Flea)—Assay A
A mixed adult population of fleas is placed in a suitably formatted 96-well plate allowing fleas to access and feed on treated blood via an artificial feeding system. Fleas are fed on treated blood for 24 h, after which the compound effect is recorded. Insecticidal activity is determined on the basis of the number of dead fleas recovered from the feeding system.

[7] = test system: Lucilla Cuprina (Australian Sheep Blowfly); assay: Activity in vitro against Lucilla cuprina (Australian sheep blowfly), Assay B; design: species or system L. cuprina; conditions: Lucilia cuprina; at 10 ppm; larvae, compound in bovine serum, percent mortality at 24 hours; read-out: efficacy (EC50)
Method: Activity In Vitro Against Lucilla Cuprina (Australian Sheep Blowfly)—Assay B
Compound formulated in bovine serum is dispensed into scintillation. A dental cotton roll is added to each vial to absorb the compound solution. L. cuprina larvae are added to each treatment vial. The vials are capped and held for 24 hours in an environmental chamber at appropriate temperature, humidity and light/dark cycles. Evaluations are only made at 24 hours because dead larvae after 24 hours may be cannibalized by the remaining live ones. Vials are examined for percent mortality.

[8] = test system: Ctenocephalides Felis (Cat Flea); assay: Activity in vitro against Ctenocephalides felis (cat flea), Assay B; conditions: Ctenocephalides felis; at 10 ppm in bovine blood; % mortality at 48 hours post infestation; read-out: efficacy (EC50)
Method: Activity In Vitro Against Ctenocephalides Felis (Cat Flea)—Assay B
Test compounds are added to organic bovine blood contained in an artificial feeding container. Compounds with known insecticidal activity are included to serve as positive controls. Newly emerged unfed adult fleas from a laboratory colony are aspirated into each vial. The test cages are maintained using the artificial feeding apparatus to allow ingestion of compound. Fleas are evaluated for % mortality at 48 hours post infestation. Fleas showing normal movement and/or jumping ability are considered viable and those showing no movement are scored as dead.

SMILES	inhibition in vivo at 32 mg/kg [1] [%]	pest or weed control at 32 ppm [2] [%]	pest or weed control at 100 ppm [3] [%]	inhibition in vivo at 32 mg/kg [4] [%]	pest or weed control at 200 ppm [5] [%]	pest or weed control at 100 ppm [6] [%]	EC50 ([2]; 4 days at 28° C.) [ppm]	EC50 ([3]; 7 days) [ppm]	pest or weed control at 10 ppm [7] [%]	pest or weed control at 10 ppm [8] [%]
CC(c1ncnn1-c1ccccn1)N(CC1CC1)C(=O)c1cc(C(F)(F)F)cc(C(F)(F)F)c1 (centres unmarked) [Example 1, N-(Cyclopropylmethyl)-N-[1-[2-(2-pyridyl)-1,24-triazol-3-yl]ethyl]-3,5-bis(trifluoromethyl)benzamide]	> 90	> 80	> 80	> 90	> 80	> 80				
CC(c1ncnn1-c1ccccn1)N(CC1CC1)C(=O)c1cc(Cl)cc(OC(F)(F)F)c1 (centres unmarked) [Example 10, 3-Chloro-N-(cyclopropylmethyl)-N-[1-[2-(2-pyridyl)-1,2,4-triazol-3-yl]ethyl]-5-(trifluoromethoxy)benzamide]	> 90	> 80	> 80	> 90	> 80	> 80				
CC(c1ncnn1-c1ccccn1)N(CCF)C(=O)c1cc(C(F)(F)F)cc(C(F)(F)F)c1 (centres unmarked) [Example 11, N-(2-Fluoroethyl)-N-[1-[2-(2-pyridyl)-1,2,4-triazol-3-yl]ethyl]-3,5-bis(trifluoromethyl)benzamide]	> 90	> 80	> 80	> 90	> 80	> 80				
CC(c1ncnn1-c1ccccn1)N(CCC(F)(F)F)C(=O)c1cc(C(F)(F)F)cc(C(F)(F)F)c1 (centres unmarked) [Example 12, N-[1-[2-(2-Pyridyl)-1,2,4-triazol-3-yl]ethyl]-3,5-bis(trifluoromethyl)-N-(3,3,3-trifluoropropyl)benzamide]	> 90	> 80	> 80	> 90	> 80					
CC(c1ncnn1-c1ncccn1)N(CCF)C(=O)c1cc(C(F)(F)F)cc(C(F)(F)F)c1 (centres unmarked) [Example 19, N-(2-Fluoroethyl)-N-[1-(2-pyrimidin-2-yl-1,2,4-triazol-3-yl]ethyl]-3,5-bis(trifluoromethyl)benzamide]	> 90	> 80	> 80	> 90	> 80	> 80				
CC(c1ncnn1-c1ncccn1)N(CCC(F)(F)F)C(=O)c1cc(C(F)(F)F)cc(C(F)(F)F)c1 (centres unmarked) [Example 20, N-[1-(2-Pyrimidin-2-yl-1,2,4-triazol-3-yl)ethyl]-3,5-bis(trifluoromethyl)-N-(3,3,3-trifluoropropyl)benzamide]	> 90	> 80	> 80	> 90	> 80	> 80				
C#CCN(C(=O)c1cc(C(F)(F)F)cc(C(F)(F)F)c1)C(C)c1ncnn1-c1ncccn1 (centres unmarked) [Example 35, N-Prop-2-ynyl-N-[1-(2-pyrimidin-2-yl-1,2,4-triazol-3-yl)ethyl]-3,5-bis(trifluoromethyl)benzamide]	> 90	> 80	> 80	> 90	> 80	> 80				
CC(c1ncnn1-c1ncccn1)N(CC1CC1)C(=O)c1cc(Cl)cc(OC(F)(F)F)c1 (centres unmarked) [Example 37, 3-chloro-N-(cyclopropylmethyl)-N-[1-(2-pyrimidin-2-yl-1,2,4-triazol-3-yl)ethyl]-5-(trifluoromethoxy)benzamide]	> 90	> 80	> 80	> 90	> 80	> 80				
COc1cnc(-n2ncnc2C(C)N(CC2CC2)C(=O)c2cc(C(F)(F)F)cc(C(F)(F)F)c2)nc1 (centres unmarked) [Example 39, N-(Cyclopropylmethyl)-N-[1-[2-(5-methoxypyrimidin-2-yl)-1,2,4-triazol-3-yl]ethyl]-3,5-bis(trifluoromethyl)benzamide]	> 90	> 80	> 80	> 90	> 80	> 80				
CC(c1ncnn1-c1ncccn1)N(CC1CC1)C(=O)c1cc(Cl)cc(C(F)(F)F)c1 (centres unmarked) [Example 40, 3-Chloro-N-(cyclopropylmethyl)-N-[1-(2-pyrimidin-2-yl-1,2,4-triazol-3-yl)ethyl]-5-(trifluoromethyl)benzamide]	> 90	> 80	> 80	> 90	> 80	> 80				
C#CCN(C(=O)c1cc(Cl)cc(C(F)(F)F)c1)C(C)c1ncnn1-c1ncccn1 (centres unmarked) [Example 41, 3-Chloro-N-prop-2-ynyl-N-[1-(2-pyrimidin-2-yl-1,2,4-triazol-3-yl)ethyl]-5-(trifluoromethyl)benzamide]	> 90	> 80	> 80	> 90	> 80	> 80	1	32		
CC(c1ncnn1-c1ncccn1)N(CC1CC1)C(=O)c1cc(C(F)(F)F)cc(C(F)(F)F)c1 (centres unmarked) [Example 48, N-(Cyclopropylmethyl)-N-[1-(2-pyrimidin-2-yl-1,2,4-triazol-3-yl)ethyl]-3,5-bis(trifluoromethyl)benzamide]	> 90	> 80	> 80	> 90	> 80	> 80				
CC(c1ncnn1-c1ncccn1)N(CC1CC1)C(=O)c1cc(C(F)(F)F)nc(C(F)(F)F)c1 (centres unmarked) [Example 51, N-(Cyclopropylmethyl)-N-[1-(2-pyrimidin-2-yl-1,2,4-triazol-3-yl)ethyl]-2,6-bis(trifluoromethyl)pyridine-4-carboxamide]									> 50	> 50
CCN(C(=O)c1cc(C(F)(F)F)cc(C(F)(F)F)c1)C(C)c1ncnn1-c1ncccn1 (centres unmarked) [Example 53, N-Ethyl-N-[1-(2-pyrimidin-2-yl-1,2,4-triazol-3-yl)ethyl]-3,5-bis(trifluoromethyl)benzamide]									> 50	> 50

Source: patent US10287276B2, “Heteroaryl-1,2,4-triazole and heteroaryl-tetrazole compounds for controlling ectoparasites” (Elanco Tiergesundheit AG, priority 2016, dated 2019)
